ChEMBL document CHEMBL1177794, “Broad spectrum alkynyl inhibitors of T315I Bcr-Abl” (Bioorg Med Chem Lett, 2010)

Assays:
[1] = system: Proto-oncogene tyrosine-protein kinase receptor Ret (Homo sapiens), P07949 [M918T]; experiment: Inhibition of RET M918T mutant at 10 uM; values are per cent of control
[2] = target: Mitogen-activated protein kinase 6 (Homo sapiens) (UniProt Q16659); experiment: Inhibition of ERK3 at 10 uM; conditions: values are per cent of control
[3] = target: Tyrosine-protein kinase ABL2 (Homo sapiens) (UniProt P42684); experiment: Inhibition of ABL2 at 10 uM; conditions: values are per cent of control
[4] = target: Mitogen-activated protein kinase kinase kinase kinase 5 (Homo sapiens) (UniProt Q9Y4K4); experiment: Inhibition of MAP4K5 at 10 uM; conditions: values are per cent of control
[5] = target: Calcium/calmodulin-dependent protein kinase type 1D (Homo sapiens) (UniProt Q8IU85); experiment: Inhibition of CAMK1D at 10 uM; conditions: values are per cent of control
[6] = target: Insulin receptor-related protein (Homo sapiens) (UniProt P14616); experiment: Inhibition of INSRR at 10 uM; conditions: values are per cent of control
[7] = target: Serine/threonine-protein kinase PLK1 (Homo sapiens) (UniProt P53350); experiment: Inhibition of PLK1 at 10 uM
[8] = target: Serine/threonine-protein kinase DCLK2 (Homo sapiens) (UniProt Q8N568); experiment: Inhibition of DCAMKL2 at 10 uM; conditions: values are per cent of control
Chain of Serine/threonine-protein kinase DCLK2 (Homo sapiens) (Q8N568 whole entry): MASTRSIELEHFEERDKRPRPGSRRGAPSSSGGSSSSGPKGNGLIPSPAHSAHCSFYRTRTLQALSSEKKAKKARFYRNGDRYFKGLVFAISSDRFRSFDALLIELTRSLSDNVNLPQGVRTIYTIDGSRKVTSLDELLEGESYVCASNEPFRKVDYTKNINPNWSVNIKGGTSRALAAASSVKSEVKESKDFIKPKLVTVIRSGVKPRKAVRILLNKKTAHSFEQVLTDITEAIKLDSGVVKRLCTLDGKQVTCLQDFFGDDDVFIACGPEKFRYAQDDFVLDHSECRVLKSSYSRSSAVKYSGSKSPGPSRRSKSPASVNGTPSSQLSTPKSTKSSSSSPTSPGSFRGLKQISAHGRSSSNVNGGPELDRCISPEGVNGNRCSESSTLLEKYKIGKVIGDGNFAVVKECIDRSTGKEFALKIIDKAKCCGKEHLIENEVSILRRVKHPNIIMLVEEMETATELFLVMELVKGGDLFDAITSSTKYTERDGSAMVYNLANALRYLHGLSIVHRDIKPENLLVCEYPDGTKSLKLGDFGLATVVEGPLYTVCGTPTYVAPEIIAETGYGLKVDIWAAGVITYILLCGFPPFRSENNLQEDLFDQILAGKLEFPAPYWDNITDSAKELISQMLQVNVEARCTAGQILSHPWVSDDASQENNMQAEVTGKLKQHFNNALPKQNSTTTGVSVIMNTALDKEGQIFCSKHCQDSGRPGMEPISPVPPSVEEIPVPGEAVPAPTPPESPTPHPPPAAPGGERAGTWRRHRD

[9] = target: RAC-beta serine/threonine-protein kinase (Homo sapiens) (UniProt P31751); experiment: Inhibition of AKT2 at 10 uM; conditions: values are per cent of control
[10] = target: Phosphatidylinositol 4-kinase beta (Homo sapiens) (UniProt Q9UBF8); experiment: Inhibition of PIK4CB at 10 uM
Chain of Phosphatidylinositol 4-kinase beta (Homo sapiens) (Q9UBF8 2-816 limits assumed): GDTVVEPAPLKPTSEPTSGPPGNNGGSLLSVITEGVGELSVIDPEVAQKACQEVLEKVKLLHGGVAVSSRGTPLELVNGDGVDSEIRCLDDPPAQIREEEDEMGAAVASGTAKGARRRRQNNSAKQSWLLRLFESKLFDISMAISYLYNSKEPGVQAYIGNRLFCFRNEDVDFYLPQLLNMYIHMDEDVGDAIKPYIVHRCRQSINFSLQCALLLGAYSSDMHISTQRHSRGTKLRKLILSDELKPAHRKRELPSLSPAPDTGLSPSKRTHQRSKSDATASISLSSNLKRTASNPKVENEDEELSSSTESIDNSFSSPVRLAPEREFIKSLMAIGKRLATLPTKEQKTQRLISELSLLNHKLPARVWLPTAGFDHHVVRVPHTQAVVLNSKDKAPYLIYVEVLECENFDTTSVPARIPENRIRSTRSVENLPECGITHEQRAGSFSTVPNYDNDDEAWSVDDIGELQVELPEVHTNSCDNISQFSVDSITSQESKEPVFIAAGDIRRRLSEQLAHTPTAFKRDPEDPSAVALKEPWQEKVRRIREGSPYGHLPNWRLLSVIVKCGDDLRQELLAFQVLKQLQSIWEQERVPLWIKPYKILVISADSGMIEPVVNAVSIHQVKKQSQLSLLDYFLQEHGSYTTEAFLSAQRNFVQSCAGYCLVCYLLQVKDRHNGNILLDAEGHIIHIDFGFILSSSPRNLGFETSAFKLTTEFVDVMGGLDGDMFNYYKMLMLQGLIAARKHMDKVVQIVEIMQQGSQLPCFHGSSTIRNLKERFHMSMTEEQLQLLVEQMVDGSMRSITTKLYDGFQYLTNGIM

[11] = target: Mitogen-activated protein kinase kinase kinase 7 (Homo sapiens) (UniProt O43318); experiment: Inhibition of TAK1 at 10 uM; values are per cent of control
[12] = target: Macrophage colony-stimulating factor 1 receptor (Homo sapiens) (UniProt P07333); experiment: Inhibition of CSF1R at 10 uM; conditions: values are per cent of control
[13] = target: MAP kinase-activated protein kinase 5 (Homo sapiens) (UniProt Q8IW41); experiment: Inhibition of MAPKAPK5 at 10 uM; conditions: values are per cent of control
[14] = target: Calcium/calmodulin-dependent protein kinase kinase 2 (Homo sapiens) (UniProt Q96RR4); experiment: Inhibition of CAMKK2 at 10 uM; conditions: values are per cent of control
[15] = target: Homeodomain-interacting protein kinase 2 (Homo sapiens) (UniProt Q9H2X6); experiment: Inhibition of HIPK2 at 10 uM; conditions: values are per cent of control
[16] = target: Serine/threonine-protein kinase PAK 6 (Homo sapiens) (UniProt Q9NQU5); experiment: Inhibition of PAK6 at 10 uM
[17] = system: Phosphatidylinositol 4,5-bisphosphate 3-kinase catalytic subunit alpha isoform (Homo sapiens), P42336 [Q546K]; experiment: Inhibition of PIK3CA Q546K mutant at 10 uM
[18] = target: Rhodopsin kinase GRK1 (Homo sapiens) (UniProt Q15835); experiment: Inhibition of GRK1 at 10 uM; conditions: values are per cent of control
[19] = target: Serine/threonine-protein kinase ULK2 (Homo sapiens) (UniProt Q8IYT8); experiment: Inhibition of ULK2 at 10 uM; conditions: values are per cent of control
[20] = target: Hormonally up-regulated neu tumor-associated kinase (Homo sapiens) (UniProt P57058); experiment: Inhibition of HUNK at 10 uM; conditions: values are per cent of control
[21] = target: Serine/threonine-protein kinase MARK2 (Homo sapiens) (UniProt Q7KZI7); experiment: Inhibition of MARK2 at 10 uM; conditions: values are per cent of control
[22] = target: Myosin light chain kinase, smooth muscle (Homo sapiens) (UniProt Q15746); experiment: Inhibition of MYLK at 10 uM
[23] = target: Fibroblast growth factor receptor 2 (Homo sapiens) (UniProt P21802); experiment: Inhibition of FGFR2 at 10 uM; conditions: values are per cent of control
[24] = target: Serine/threonine-protein kinase 33 (Homo sapiens) (UniProt Q9BYT3); experiment: Inhibition of STK33 at 10 uM
[25] = target: Receptor tyrosine-protein kinase erbB-2 (Homo sapiens) (UniProt P04626); experiment: Inhibition of ERBB2 at 10 uM; values are per cent of control
[26] = target: Ribosomal protein S6 kinase alpha-4 (Homo sapiens) (UniProt O75676); experiment: Inhibition of RPS6KA4 C-terminal domain2 at 10 uM
Chain of Ribosomal protein S6 kinase alpha-4 (Homo sapiens) (O75676 whole entry, looked up, the tested form may be a part): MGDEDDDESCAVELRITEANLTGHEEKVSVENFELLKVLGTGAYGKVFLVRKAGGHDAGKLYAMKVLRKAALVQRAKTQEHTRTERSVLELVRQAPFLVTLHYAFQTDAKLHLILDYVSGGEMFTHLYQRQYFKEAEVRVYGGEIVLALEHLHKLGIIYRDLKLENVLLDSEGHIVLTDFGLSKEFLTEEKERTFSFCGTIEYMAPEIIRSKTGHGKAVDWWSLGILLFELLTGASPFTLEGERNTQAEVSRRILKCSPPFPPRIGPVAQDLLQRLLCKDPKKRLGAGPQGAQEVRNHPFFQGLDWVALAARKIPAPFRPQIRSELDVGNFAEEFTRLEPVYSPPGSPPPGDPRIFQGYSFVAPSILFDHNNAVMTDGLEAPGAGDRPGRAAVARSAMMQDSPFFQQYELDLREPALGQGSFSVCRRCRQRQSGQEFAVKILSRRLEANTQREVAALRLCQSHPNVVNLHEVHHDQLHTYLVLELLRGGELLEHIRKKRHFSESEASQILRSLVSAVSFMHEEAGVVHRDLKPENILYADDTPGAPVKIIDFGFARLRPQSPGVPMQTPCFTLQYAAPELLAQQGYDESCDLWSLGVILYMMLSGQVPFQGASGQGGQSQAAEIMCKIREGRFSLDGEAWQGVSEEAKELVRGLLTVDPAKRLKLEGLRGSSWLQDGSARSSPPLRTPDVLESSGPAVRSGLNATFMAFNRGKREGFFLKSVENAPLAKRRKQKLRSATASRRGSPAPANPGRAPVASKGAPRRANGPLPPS

[27] = target: 3-phosphoinositide-dependent protein kinase 1 (Homo sapiens) (UniProt O15530); experiment: Inhibition of PDPK1 at 10 uM
[28] = Inhibition of FLT3 ITD mutant at 10 uM; conditions: values are per cent of control
[29] = system: Tyrosine-protein kinase ABL1 (Homo sapiens), P00519 [T315I]; experiment: Inhibition of non phosphorylated ABL1 T315I mutant at 10 uM; conditions: values are per cent of control
[30] = system: Receptor-type tyrosine-protein kinase FLT3 (Homo sapiens), P36888 [R834Q]; experiment: Inhibition of FLT3 R834Q mutant at 10 uM; conditions: values are per cent of control
[31] = target: Tyrosine-protein kinase receptor TYRO3 (Homo sapiens) (UniProt Q06418); experiment: Inhibition of TYRO3 at 10 uM; conditions: values are per cent of control
[32] = target: Proto-oncogene tyrosine-protein kinase receptor Ret (Homo sapiens) (UniProt P07949); experiment: Inhibition of RET at 10 uM; values are per cent of control
[33] = target: Proto-oncogene tyrosine-protein kinase Src (Homo sapiens) (UniProt P12931); experiment: Inhibition of SRC at 10 uM; values are per cent of control
[34] = target: Cyclin-dependent kinase 9 (Homo sapiens) (UniProt P50750); experiment: Inhibition of CDK9 at 10 uM; values are per cent of control
[35] = target: Serine/threonine-protein kinase TAO3 (Homo sapiens) (UniProt Q9H2K8); experiment: Inhibition of TAOK3 at 10 uM
[36] = target: Mast/stem cell growth factor receptor Kit (Homo sapiens) (UniProt P10721); experiment: Inhibition of KIT at 10 uM; conditions: values are per cent of control
[37] = target: Mitogen-activated protein kinase 11 (Homo sapiens) (UniProt Q15759); experiment: Inhibition of p38beta at 10 uM; values are per cent of control
Chain of Mitogen-activated protein kinase 11 (Homo sapiens) (Q15759 whole entry): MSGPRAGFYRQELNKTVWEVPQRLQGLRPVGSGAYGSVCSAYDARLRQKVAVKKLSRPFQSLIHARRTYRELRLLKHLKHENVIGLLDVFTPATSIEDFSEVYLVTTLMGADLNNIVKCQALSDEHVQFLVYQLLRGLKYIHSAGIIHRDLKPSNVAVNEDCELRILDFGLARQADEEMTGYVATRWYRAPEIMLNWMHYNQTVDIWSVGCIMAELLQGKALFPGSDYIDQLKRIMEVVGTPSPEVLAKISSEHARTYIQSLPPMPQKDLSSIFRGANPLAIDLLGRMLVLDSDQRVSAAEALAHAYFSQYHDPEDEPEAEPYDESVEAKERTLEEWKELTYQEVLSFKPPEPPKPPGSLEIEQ

[38] = system: BaF3; experiment: Antiproliferative activity against mouse BAF3 cells expressing Bcr-Abl T315I mutant; format: functional, cell-based
[39] = system: Epidermal growth factor receptor (Homo sapiens), P00533 [UNDEFINED MUTATION]; experiment: Inhibition of EGFR L747-S752del, P753S mutant at 10 uM; values are per cent of control
Chain of Epidermal growth factor receptor (Homo sapiens), P00533 [UNDEFINED MUTATION] (P00533 whole entry, looked up, stated change not applied): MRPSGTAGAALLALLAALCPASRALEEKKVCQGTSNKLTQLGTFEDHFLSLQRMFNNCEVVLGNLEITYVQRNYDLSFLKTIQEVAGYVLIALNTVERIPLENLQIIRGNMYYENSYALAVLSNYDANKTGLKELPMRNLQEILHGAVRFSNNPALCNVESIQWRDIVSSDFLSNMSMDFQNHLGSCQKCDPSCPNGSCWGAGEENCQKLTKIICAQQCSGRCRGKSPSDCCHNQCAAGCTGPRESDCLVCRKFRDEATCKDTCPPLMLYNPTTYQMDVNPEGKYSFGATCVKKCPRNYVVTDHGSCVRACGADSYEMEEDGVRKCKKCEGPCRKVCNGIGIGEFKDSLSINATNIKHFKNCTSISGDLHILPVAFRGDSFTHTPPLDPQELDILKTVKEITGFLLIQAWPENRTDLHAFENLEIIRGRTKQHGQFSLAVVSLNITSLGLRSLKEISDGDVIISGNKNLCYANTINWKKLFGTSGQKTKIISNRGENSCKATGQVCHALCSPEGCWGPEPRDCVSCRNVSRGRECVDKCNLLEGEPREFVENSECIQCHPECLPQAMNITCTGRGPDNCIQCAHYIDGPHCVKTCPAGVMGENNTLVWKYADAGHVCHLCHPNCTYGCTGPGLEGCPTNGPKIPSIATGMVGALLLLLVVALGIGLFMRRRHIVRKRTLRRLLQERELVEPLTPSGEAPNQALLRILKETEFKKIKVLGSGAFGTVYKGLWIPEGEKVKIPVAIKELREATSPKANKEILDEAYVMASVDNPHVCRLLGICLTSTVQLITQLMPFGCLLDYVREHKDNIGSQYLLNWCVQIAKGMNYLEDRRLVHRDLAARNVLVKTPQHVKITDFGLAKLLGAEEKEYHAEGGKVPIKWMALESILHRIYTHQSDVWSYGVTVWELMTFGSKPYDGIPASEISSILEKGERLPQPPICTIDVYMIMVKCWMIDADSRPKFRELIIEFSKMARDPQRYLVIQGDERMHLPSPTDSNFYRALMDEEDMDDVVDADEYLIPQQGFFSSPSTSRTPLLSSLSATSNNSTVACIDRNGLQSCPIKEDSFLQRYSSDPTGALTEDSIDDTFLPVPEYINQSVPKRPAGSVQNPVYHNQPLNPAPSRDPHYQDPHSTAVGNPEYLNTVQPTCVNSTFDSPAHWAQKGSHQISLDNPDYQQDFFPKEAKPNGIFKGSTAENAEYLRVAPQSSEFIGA

[40] = target: Phosphatidylinositol 5-phosphate 4-kinase type-2 beta (Homo sapiens) (UniProt P78356); experiment: Inhibition of PIP5K2B at 10 uM
Chain of Phosphatidylinositol 5-phosphate 4-kinase type-2 beta (Homo sapiens) (P78356 whole entry): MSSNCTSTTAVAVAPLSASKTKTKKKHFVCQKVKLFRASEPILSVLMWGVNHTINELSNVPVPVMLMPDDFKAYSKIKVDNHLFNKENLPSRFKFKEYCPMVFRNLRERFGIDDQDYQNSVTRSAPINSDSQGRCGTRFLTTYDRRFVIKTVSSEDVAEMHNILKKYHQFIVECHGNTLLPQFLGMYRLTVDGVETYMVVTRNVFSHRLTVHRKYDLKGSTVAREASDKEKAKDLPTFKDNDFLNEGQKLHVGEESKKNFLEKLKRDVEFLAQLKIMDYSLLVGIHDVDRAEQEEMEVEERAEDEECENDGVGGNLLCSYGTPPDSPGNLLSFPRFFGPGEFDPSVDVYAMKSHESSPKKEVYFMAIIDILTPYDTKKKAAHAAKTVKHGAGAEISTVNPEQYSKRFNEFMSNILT

[41] = target: Maternal embryonic leucine zipper kinase (Homo sapiens) (UniProt Q14680); experiment: Inhibition of MELK at 10 uM; conditions: values are per cent of control
Chain of Maternal embryonic leucine zipper kinase (Homo sapiens) (Q14680 whole entry, looked up): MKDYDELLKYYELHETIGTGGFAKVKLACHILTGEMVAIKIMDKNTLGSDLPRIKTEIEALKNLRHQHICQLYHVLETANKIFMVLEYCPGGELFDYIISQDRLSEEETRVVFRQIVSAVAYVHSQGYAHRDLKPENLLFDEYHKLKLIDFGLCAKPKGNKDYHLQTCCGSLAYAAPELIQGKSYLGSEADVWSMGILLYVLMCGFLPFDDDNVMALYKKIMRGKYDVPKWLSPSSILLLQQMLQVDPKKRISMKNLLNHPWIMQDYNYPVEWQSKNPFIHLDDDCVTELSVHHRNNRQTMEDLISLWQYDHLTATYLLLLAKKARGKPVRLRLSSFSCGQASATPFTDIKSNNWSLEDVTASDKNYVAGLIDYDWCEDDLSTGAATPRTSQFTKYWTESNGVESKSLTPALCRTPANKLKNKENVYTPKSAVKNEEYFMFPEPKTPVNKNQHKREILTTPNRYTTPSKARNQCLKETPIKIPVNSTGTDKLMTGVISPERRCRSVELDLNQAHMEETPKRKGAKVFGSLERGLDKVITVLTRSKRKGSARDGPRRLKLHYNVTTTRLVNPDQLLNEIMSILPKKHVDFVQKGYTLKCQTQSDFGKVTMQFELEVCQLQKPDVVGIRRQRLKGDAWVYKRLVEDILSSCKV

[42] = system: Tyrosine-protein kinase ABL1 (Homo sapiens), P00519 [H396P]; experiment: Inhibition of phosphorylated ABL1 H396P mutant at 10 uM; conditions: values are per cent of control

CCN1CCN(Cc2ccc(NC(=O)c3ccc(C)c(C#Cc4cccnc4)c3)cc2C(F)(F)F)CC1
level, % of control [1]: 0%
residual binding, % of control [2]: 100%
residual binding, % of control [3]: 0.05%
residual binding, % of control [4]: 3%
residual binding, % of control [5]: 72%
residual binding, % of control [6]: 79%
inhibition [7]: 58%
residual binding, % of control [8]: 65%
residual binding, % of control [9]: 30%
inhibition [10]: 100%
% of control [11]: 0.2%
residual binding, % of control [12]: 0%
residual binding, % of control [13]: 95%
residual binding, % of control [14]: 7.8%
residual binding, % of control [15]: 34%
inhibition [16]: 100%
inhibition [17]: 100%
residual binding, % of control [18]: 100%
residual binding, % of control [19]: 50%
residual binding, % of control [20]: 54%
residual binding, % of control [21]: 100%
inhibition [22]: 57%
residual binding, % of control [23]: 0.5%
inhibition [24]: 14%
level, % of control [25]: 0.5%
inhibition [26]: 99%
inhibition [27]: 84%
residual binding, % of control [28]: 0.1%
residual binding, % of control [29]: 2.8%
residual binding, % of control [30]: 4.2%
residual binding, % of control [31]: 100%
level, % of control [32]: 0%
% of control [33]: 0%
level, % of control [34]: 52%
inhibition [35]: 0%
residual binding, % of control [36]: 0%
level, % of control [37]: 0%
EC50 [38]: 92 nM
level, % of control [39]: 0.9%
inhibition [40]: 58%
residual binding, % of control [41]: 8.1%
residual binding, % of control [42]: 0%

CCN1CCN(Cc2ccc(NC(=O)c3ccc(C)c(C#Cc4cnc5[nH]ccc5c4)c3)cc2C(F)(F)F)CC1
level, % of control [1]: 0%
residual binding, % of control [2]: 100%
residual binding, % of control [3]: 0%
residual binding, % of control [4]: 1.6%
residual binding, % of control [5]: 68%
residual binding, % of control [6]: 68%
inhibition [7]: 56%
residual binding, % of control [8]: 30%
residual binding, % of control [9]: 4.6%
inhibition [10]: 100%
% of control [11]: 0.25%
residual binding, % of control [12]: 0%
residual binding, % of control [13]: 98%
residual binding, % of control [14]: 27%
residual binding, % of control [15]: 46%
inhibition [16]: 85%
inhibition [17]: 100%
residual binding, % of control [18]: 88%
residual binding, % of control [19]: 61%
residual binding, % of control [20]: 21%
residual binding, % of control [21]: 83%
inhibition [22]: 56%
residual binding, % of control [23]: 0.5%
inhibition [24]: 6.8%
level, % of control [25]: 0.3%
inhibition [26]: 87%
inhibition [27]: 60%
residual binding, % of control [28]: 0.15%
residual binding, % of control [29]: 2.4%
residual binding, % of control [30]: 7.2%
residual binding, % of control [31]: 38%
level, % of control [32]: 0%
% of control [33]: 0.05%
level, % of control [34]: 31%
inhibition [35]: 0%
residual binding, % of control [36]: 0%
level, % of control [37]: 0%
EC50 [38]: 80 nM
level, % of control [39]: 0.8%
inhibition [40]: 7.7%
residual binding, % of control [41]: 6.1%
residual binding, % of control [42]: 0.05%
